From patent publication US20060035862A1, “Tolerance of 4-(4-(2-pyrrolycarbonyl)-1-piperazinyl)-3-trifluoromethyl-benzoylguanidine in intravenous administration” (Boehringer Ingelheim Pharma KG, priority 2001, published 2006)
Counter-ions that a name gives are not always drawn.

How the values were obtained:
[1] = stability of the active substance (hydrolysis); type: physicochemical; conditions: only anhydrous formulations are stable
Text: Therefore, lyophilisates have been developed, which have to be reconstituted before use.

[2] = local tolerance in dogs (bolus and infusion); type: in vivo
Procedure: In the second step the appropriate ratio of HPβCD to active substance was determined from the local tolerance in dogs.

[3] = local tolerance after intravenous administration; type: in vivo
Procedure: When they are administered parenterally some local intolerances occasionally arise.

[4] = tested on: citrated human blood; assay: in vitro haemolysis test (solution mixed 1:1 with citrated human blood, 37° C.); type: cell-based
Text: In the following description the term “active substance”, on its own or in combination, always denotes 4-(4-(2-pyrrolylcarbonyl)-1-piperazinyl)-3-trifluoromethyl-benzoylguanidine hydrochloride, unless otherwise stated. Both a monohydrate and a hemihydrate of 4-(4-(2-pyrrolylcarbonyl)-1-piperazinyl)-3-trifluoromethyl-benzoylguanidine hydrochloride may be obtained. For all the experiments the hemihydrate was used. The quantitative data used hereinafter always relate to the free base; i.e. the quantities specified correspond to the theoretical amount of free base, whereas in reality a correspondingly larger amount of hemihydrate was added. In each case glucose was used to render the solution isotonic. The isotonic nature of the solutions was checked in each case by lowering the freezing point. In in-vitro haemolysis tests in each case the solution to be tested was mixed with citrated human blood in the ratio 1:1 and kept at 37° C. during the incubation period. […]

[5] = local tolerance trial on rats (30 minutes' infusion into the caudal vein); type: in vivo
[6] = local tolerance study on rabbits (bolus and 8 minutes infusion); type: in vivo

N=C(N)NC(=O)c1ccc(N2CCN(C(=O)c3ccc[nH]3)CC2)c(C(F)(F)F)c1 [active substance, 4-(4-(2-pyrrolylcarbonyl)-1-piperazinyl)-3-trifluoromethyl-benzoylguanidine hydrochloride]
stability [1]: prone to hydrolysis
local tolerance ([2]; weight ratio HPβCD to active substance 10:1, bolus, active substance concentration 10 mg/ml): suitable
local tolerance ([2]; weight ratio HPβCD to active substance 10:1, infusion, active substance concentration between 1.5 mg/ml and 3 mg/ml): suitable
local tolerance [3]: locally poorly tolerated
degree of haemolysis ([4]; 10 mg/ml active substance, 100 mg/ml PVP 17 PF, aqueous isotonic solution, incubation 45 minutes): 17%
haemolysis observed ([4]; 1% aqueous isotonic active substance solution containing 10% HPβCD, incubation 45 minutes): no haemolysis
degree of haemolysis (%) ([4]; active substance 0.5 mg/ml, aqueous isotonic solution, no tolerance measures, incubation two hours): 0%
degree of haemolysis (%) ([4]; active substance 1.0 mg/ml, aqueous isotonic solution, no tolerance measures, incubation two hours): 1%
degree of haemolysis (%) ([4]; active substance 1.5 mg/ml, aqueous isotonic solution, no tolerance measures, incubation two hours): 4%
degree of haemolysis (%) ([4]; active substance 1.5 mg/ml, no tolerance measures, incubation 45 minutes): 0%
degree of haemolysis (%) ([4]; active substance 10 mg/ml, HPβCD 0 mg/ml, incubation 45 minutes): 100%
degree of haemolysis (%) ([4]; active substance 10 mg/ml, HPβCD 100 mg/ml, incubation 45 minutes): 0%
degree of haemolysis (%) ([4]; active substance 10 mg/ml, Poloxamer 188 0 mg/ml, incubation 45 minutes): 99%
degree of haemolysis (%) ([4]; active substance 10 mg/ml, Poloxamer 188 100 mg/ml, incubation 45 minutes): 4%
degree of haemolysis (%) ([4]; active substance 10 mg/ml, Poloxamer 188 200 mg/ml, incubation 45 minutes): 0%
degree of haemolysis (%) ([4]; active substance 10.0 mg/ml, no tolerance measures, incubation 45 minutes): 100%
degree of haemolysis (%) ([4]; active substance 10 mg/ml, phospholipid 60 mg/ml, sodium glycocholate 32 mg/ml): 2%
degree of haemolysis (%) ([4]; active substance 10 mg/ml, phospholipid 60 mg/ml, sodium glycocholate 36 mg/ml): 7%
degree of haemolysis (%) ([4]; active substance 10 mg/ml, phospholipid 75 mg/ml, sodium cholate 50 mg/ml, incubation 45 minutes): 7%
degree of haemolysis (%) ([4]; active substance 10 mg/ml, phospholipid 150 mg/ml, sodium cholate 100 mg/ml, incubation 45 minutes): 0%
haemolytic activity ([4]; ratio of HPβCD to active substance 6.67:1, active substance concentration 9 mg/ml): not haemolytic
local tolerance ([5]; 0.75 mg/ml, no tolerance measures, 30 minutes' infusion into the caudal vein): poorly tolerated
local tolerance ([5]; 1.5 mg/ml with 100 mg/ml Poloxamer 188, 30 minutes infusion into the caudal vein, compared with 1.5 mg/ml without excipient): better tolerated
local tolerance ([6]; 1% active substance solutions containing 10% HPβCD): locally well-tolerated
local tolerance ([6]; 1% active substance solutions with phospholipid and sodium cholate (mixed micelles)): locally well-tolerated
